For four compounds, EC50 and AUC(0-t) results are on record in EP4806909A1, “GLP-1 COMPOUND, AND PREPARATION METHOD THEREFOR AND USE THEREOF” (Shenzhen Salubris Pharmaceuticals Co., Ltd., priority 2023, dated 2025).

Molecules are shown by their SMILES.

One series deals with T1, GLP-1 receptor (Homo sapiens, UniProt P43220).
T1 construct: expressed in transfected cells
The experiment in a line: GLP-1 activity assay (cAMP HTRF). Type of series: cell-based. As to conditions: U20S-GLP-1R stable transfected cell line, 30 minutes at 37°C. As to the method:
The agonistic effect of the test substance on the GLP-1 receptor was determined using a U20S-GLP-1R stable transfected cell line and a HTRF detection method.
• 1. According to the experimental procedure of the cAMP-Gs Dynamic HTRF kit, the 5x Stimulation buffer (SB) provided in the kit was diluted to 1xSB with ddH2O. IBMX was added to the 1xSB solution to a final concentration of 500 µM to prevent degradation of cAMP. Then, a working solution of the test substance was prepared using 1xSB and subjected to a series of gradient dilutions. • 2. U2OS-GLP-1R cells were digested and collected. After resuspending and counting, the cell density was diluted to 2x10^6 cells/mL using 1xSB solution. Then, 5 µL per well was seeded into a 384-well cell culture plate, resulting in 10,000 cells per well. • 3. The test substances were added at different concentrations into the corresponding cell wells at 5 µL per well, and incubated in a 37°C incubator for 30 minutes. • 4. According to the steps provided by the cAMP-Gs Dynamic HTRF kit, cAMP standard solutions of different concentrations were prepared and added into the 384-well plate. • 5. The cAMP d2 reagent and Eu Cryptate antibody provided in the kit were diluted to 1x using Lysis & Detection Buffer. Then, d2 and Eu solutions were added to the 384-well plate, 5 µL each well. After incubation at room temperature for 2 hours, the plate was read using the HTRF module (665/620 nm) of a microplate reader, and experimental data was collected. • 6. A curve was plotted using the signal value versus the compound concentration. Curve fitting and EC50 calculation were performed using nonlinear regression of GraphPad Prism software. […] Table 2: GLP-1 Activity of the compounds

Series [1] can be described thus: Pharmacokinetic experiment in rats. Format: in vivo. As to conditions: rat, plasma; SD rats, male, intravenous, 0.2 mg/kg, sampling to 72 hours. As to the method:
Dulbecco's phosphate buffered saline (DPBS) (Batch No.: F2326001, Shanghai Aladdin Biochemical Technology Co., Ltd.). LC-MS instrument (Thermo TSQ Altis Plus).
SD rats: Male, 180-250g, purchased from Guangdong Vital River Laboratory Animal Technology Co., Ltd.
The test sample powder was accurately weighed and completely dissolved in Dulbecco's phosphate buffered saline free of Ca^2+/Mg^2+, mixed well to obtain a 0.1 mg/mL solution, and administered intravenously at a dose of 2 mL/kg.
After intravenous administration to the rats, approximately 200 µL of venous blood was collected into EDTA-K2 anticoagulant-coated EP tubes pre-dose and post-dose at 0, 0.5, 2, 5, 24, 48, and 72 hours . The blood was centrifuged at 12,000 rpm for 2 minutes. The plasma was collected and stored frozen at -20°C until analysis.
A certain amount of the test sample was accurately weighed and dissolved in DMSO to prepare a 2 mg/mL stock solution. An appropriate amount of the compound stock solution was accurately pipetted and diluted with an acetonitrile-aqueous solution (ACN:H2O=1:1) to prepare a series of standard solutions. […]
After determining the plasma drug concentration by LC-MS, the pharmacokinetic parameters in rats post-administration were calculated using a non-compartmental model with WinNonlin 6.1 software.

T1 sequence (P43220 24-463, species assumed): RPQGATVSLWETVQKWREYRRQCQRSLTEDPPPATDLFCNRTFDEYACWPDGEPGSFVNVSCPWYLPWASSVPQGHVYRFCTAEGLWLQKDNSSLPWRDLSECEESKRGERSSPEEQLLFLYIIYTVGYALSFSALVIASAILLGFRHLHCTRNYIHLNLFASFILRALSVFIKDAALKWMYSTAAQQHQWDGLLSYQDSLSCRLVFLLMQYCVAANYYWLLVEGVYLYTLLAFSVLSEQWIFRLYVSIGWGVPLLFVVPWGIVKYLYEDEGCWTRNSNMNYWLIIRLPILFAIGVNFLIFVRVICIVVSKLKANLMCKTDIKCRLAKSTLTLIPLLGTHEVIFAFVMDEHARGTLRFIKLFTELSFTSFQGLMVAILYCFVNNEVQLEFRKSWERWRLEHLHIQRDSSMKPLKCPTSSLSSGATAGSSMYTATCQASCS

For orientation: EC50 means the midpoint of the concentration-response curve. On GLP-1 receptor, `CC[C@H](C)[C@H](NC(=O)[C@H](Cc1ccccc1)NC(=O)[C@H](CCC(=O)O)NC(=O)[C@H](CCCCNC(=O)COCCOCCNC(=O)COCCOCCNC(=O)CC[C@H](NC(=O)CCCCCCCCCCCCCCCCC(=O)O)C(=O)O)NC(=O)[C@H](C)NC(=O)[C@H](C)NC(=O)[C@H](CCC(N)=O)NC(=O)CNC(=O)[C@H](CCC(=O)O)NC(=O)[C@H](CC(C)C)NC(=O)[C@H](Cc1ccc(O)cc1)NC(=O)[C@H](CO)NC(=O)[C@H](CO)NC(=O)[C@@H](NC(=O)[C@H](CC(=O)O)NC(=O)[C@H](CO)NC(=O)[C@@H](NC(=O)[C@H](Cc1ccccc1)NC(=O)[C@@H](NC(=O)CNC(=O)[C@H](CCC(=O)O)NC(=O)C(C)(C)NC(=O)[C@H](Cc1c[nH]cn1)NC(=O)CN(CCOCCOCCNC(=O)CC[C@H](NC(=O)CCCCCCCCCCCCCCC(=O)O)C(=O)O)C(=O)CN)[C@@H](C)O)[C@@H](C)O)C(C)C)C(=O)N[C@@H](C)C(=O)N[C@@H](Cc1c[nH]c2ccccc12)C(=O)N[C@@H](CC(C)C)C(=O)N[C@H](C(=O)N[C@@H](CCCNC(=N)N)C(=O)NCC(=O)N[C@@H](CCCNC(=N)N)C(=O)NCC(=O)O)C(C)C` [Example 3] showed an EC50 of 15.7 nM.
Same read-out and setting: the same measure for `CC[C@H](C)[C@H](NC(=O)[C@H](Cc1ccccc1)NC(=O)[C@H](CCC(=O)O)NC(=O)[C@H](CCCCNC(=O)COCCOCCNC(=O)COCCOCCNC(=O)CC[C@H](NC(=O)CCCCCCCCCCCCCCCCC(=O)O)C(=O)O)NC(=O)[C@H](C)NC(=O)[C@H](C)NC(=O)[C@H](CCC(N)=O)NC(=O)CNC(=O)[C@H](CCC(=O)O)NC(=O)[C@H](CC(C)C)NC(=O)[C@H](Cc1ccc(O)cc1)NC(=O)[C@H](CO)NC(=O)[C@H](CO)NC(=O)[C@@H](NC(=O)[C@H](CC(=O)O)NC(=O)[C@H](CO)NC(=O)[C@@H](NC(=O)[C@H](Cc1ccccc1)NC(=O)[C@@H](NC(=O)CNC(=O)[C@H](CCC(=O)O)NC(=O)C(C)(C)NC(=O)[C@H](Cc1c[nH]cn1)NC(=O)CN(CCOCCOCCNC(=O)C[C@H](NC(=O)CCCCCCCCCCCCCCC(=O)O)C(=O)O)C(=O)CN)[C@@H](C)O)[C@@H](C)O)C(C)C)C(=O)N[C@@H](C)C(=O)N[C@@H](Cc1c[nH]c2ccccc12)C(=O)N[C@@H](CC(C)C)C(=O)N[C@H](C(=O)N[C@@H](CCCNC(=N)N)C(=O)NCC(=O)N[C@@H](CCCNC(=N)N)C(=O)NCC(=O)O)C(C)C` [Example 4]: 16.9 nM.
Broadly, the AUC(0-t) is the area under the concentration-time curve up to a stated or last time point. `CC[C@H](C)[C@H](NC(=O)[C@H](Cc1ccccc1)NC(=O)[C@H](CCC(=O)O)NC(=O)[C@H](CCCCNC(=O)COCCOCCNC(=O)COCCOCCNC(=O)CC[C@H](NC(=O)CCCCCCCCCCCCCCCCC(=O)O)C(=O)O)NC(=O)[C@H](C)NC(=O)[C@H](C)NC(=O)[C@H](CCC(N)=O)NC(=O)CNC(=O)[C@H](CCC(=O)O)NC(=O)[C@H](CC(C)C)NC(=O)[C@H](Cc1ccc(O)cc1)NC(=O)[C@H](CO)NC(=O)[C@H](CO)NC(=O)[C@@H](NC(=O)[C@H](CC(=O)O)NC(=O)[C@H](CO)NC(=O)[C@@H](NC(=O)[C@H](Cc1ccccc1)NC(=O)[C@@H](NC(=O)CNC(=O)[C@H](CCC(=O)O)NC(=O)C(C)(C)NC(=O)[C@H](Cc1c[nH]cn1)NC(=O)CN(CCNC(=O)CC[C@H](NC(=O)CCCCCCCCCCCCCCC(=O)O)C(=O)O)C(=O)[C@@H]1CCCN1)[C@@H](C)O)[C@@H](C)O)C(C)C)C(=O)N[C@@H](C)C(=O)N[C@@H](Cc1c[nH]c2ccccc12)C(=O)N[C@@H](CC(C)C)C(=O)N[C@H](C(=O)N[C@@H](CCCNC(=N)N)C(=O)NCC(=O)N[C@@H](CCCNC(=N)N)C(=O)NCC(=O)O)C(C)C` [Example 17]: in series [1], the AUC(0-t) was 99.3 µg·h/mL. This compound also had an EC50 on GLP-1 receptor of 5.7 nM.
`CC[C@H](C)[C@H](NC(=O)[C@H](Cc1ccccc1)NC(=O)[C@H](CCC(=O)O)NC(=O)[C@H](CCCCNC(=O)COCCOCCNC(=O)COCCOCCNC(=O)CC[C@H](NC(=O)CCCCCCCCCCCCCCCCC(=O)O)C(=O)O)NC(=O)[C@H](C)NC(=O)[C@H](C)NC(=O)[C@H](CCC(N)=O)NC(=O)CNC(=O)[C@H](CCC(=O)O)NC(=O)[C@H](CC(C)C)NC(=O)[C@H](Cc1ccc(O)cc1)NC(=O)[C@H](CO)NC(=O)[C@H](CO)NC(=O)[C@@H](NC(=O)[C@H](CC(=O)O)NC(=O)[C@H](CO)NC(=O)[C@@H](NC(=O)[C@H](Cc1ccccc1)NC(=O)[C@@H](NC(=O)CNC(=O)[C@H](CCC(=O)O)NC(=O)C(C)(C)NC(=O)[C@H](Cc1c[nH]cn1)NC(=O)CN(CCNC(=O)C[C@H](NC(=O)CCCCCCCCCCCCCCC(=O)O)C(=O)O)C(=O)CN)[C@@H](C)O)[C@@H](C)O)C(C)C)C(=O)N[C@@H](C)C(=O)N[C@@H](Cc1c[nH]c2ccccc12)C(=O)N[C@@H](CC(C)C)C(=O)N[C@H](C(=O)N[C@@H](CCCNC(=N)N)C(=O)NCC(=O)N[C@@H](CCCNC(=N)N)C(=O)NCC(=O)O)C(C)C` [Example 2] registered an AUC(0-t) in series [1] of 101 µg·h/mL. The EC50 at GLP-1 receptor stood at 9.3 nM.
